This is an account of results in patent US20020065419A1, “Cyclobutenedione compounds” (priority 2000, published 2002).

Assay [1] has as its system aortic rings of New Zealand rabbits. Briefly: Protective vascular effects with respect to endothelial dysfunction caused by a system generating O2- (XO-Hypo), aortic rings. The conditions noted are these: compound at 10^-7 M; XO 3 mU/ml, Hypo 10^-4 M; rabbit aortic rings.
For a further assay, the system named is rat aortic rings. The experiment in a line: Aortic production of cGMP stimulated by ACh in the presence of LNA. The settings on record: compound at 3x10 -M (so in the source), 30-minute incubation, ACh 10^-5 M 1 minute, LNA 3x10^-6 M. How it is done: By diffusing to the smooth muscle cells, the NO produced by the endothelial cells activates soluble guanylate cyclase, which brings about an increase in cyclic GMP, which is responsible for relaxation.
The rat aortic rings are prepared as previously. The effects of 30-minute incubation of compounds of the invention at different concentrations are assessed on the production of cGMP stimulated by ACh (10^−5 M—1 minute) in the presence of LNA (3×10^−6 M). The said experiments are carried out in the presence of isobutylmethylxanthine (10^−5 M) in order to avoid degradation of the cGMP by phosphodiesterases. The rings are frozen in liquid nitrogen and maintained at −80° C. until the assay is carried out. The cGMP content is assessed by radioimmunoassay and expressed in relation to the amount of proteins contained in the tissue (assay by the Bradford method).

For assay [2], the system named is thoracic aorta rings of Wistar rat. Briefly: Vascular protective effects with respect to endothelial dysfunction caused by an inhibitor of NOS (LNA), aortic rings. The settings on record: compound at 10^-7 M, LNA 3x10^-7 M, relaxation due to ACh. From the text: Under standard in vitro conditions, relaxation of aortic rings caused by acetylcholine (ACh), which relaxation is entirely dependent on the presence of endothelium, reflects the production of NO (stimulated by ACh), which, by diffusing to smooth muscle cells, brings about arterial relaxation (Nature, 1980, 288, 373).
the first model consists of causing inhibition of the relaxation due to ACh by blocking the enzymatic activity (endothelial NOS) responsible for the production of NO;
The thoracic aorta of a Wistar rat (325-375 g), anaesthetised by the intraperitoneal route using pentobarbital sodium (30 mg/kg), is removed and dissected into rings having a length of 3 mm. Each ring is suspended from an isometric tension sensor connected to a recording system and the initial tension applied is 2.5 g. […]
After a 90-minute stabilisation period, the preparations are contracted using phenylephrine (PHE 10^−6 M) and relaxed by adding 10^−5 M of acetylcholine in order to verify the integrity of the endothelial layer. […] The preparations are again contracted using phenylephrine and, after 30 minutes, the relaxations due to acetylcholine (ACh-10^−8 M to 10^−5 M) are assessed in the presence of indomethacin (10^−5 M).
The relaxation values are expressed as a percentage relative to the maximum contraction caused by PHE. […]

Take `O=c1c(NCCN2CCC(COc3ccccc3)CC2)c(N2CCc3ccccc32)c1=O` [Example 5, 3-(2,3-Dihydro-1H-indol-1-yl)-4-({2-[4-(Phenoxymethyl)-1-piperidinyl]-ethyl}amino)-3-cyclobutene-1,2-dione and its methanesulphonate]: the “inhibition of the endothelial dysfunction caused by the XO-Hypo combination” value in assay [1] is 17%. Moreover, the “increase of the production of cGMP stimulated by ACh in the presence of LNA” value in the assay with rat aortic rings stood at 39%. In assay [2], the “inhibition of the endothelial dysfunction caused by LNA” value was determined as 27%.
